According to article PMC6874179, “Development of Macrocycle Kinase Inhibitors for ALK2 Using Fibrodysplasia Ossificans Progressiva‐Derived Endothelial Cells” (JBMR Plus, 2019):

Legend:
ALK1 = molecular target: T1, ALK1 (Homo sapiens, UniProt P37023); assay: DiscoverX Kd determination; type: binding
T1 construct: T7 phage fusion (or DNA tag for qPCR if made in HEK-293); purchased DiscoverX; host or cells: E. coli (T7 phage) or HEK-293
Description: (§1) DiscoverX Kd determination: For most assays, kinase-tagged T7 phage strains were prepared in an E. coli host derived from the BL21 strain. E. coli were grown to log-phase and infected with T7 phage and incubated with shaking at 32°C until lysis. The lysates were centrifuged and filtered to remove cell debris. The remaining kinases were produced in HEK-293 cells and subsequently tagged with DNA for qPCR detection. […] The liganded beads were blocked with excess biotin and washed with blocking buffer (SeaBlock (Pierce), 1% BSA, 0.05% Tween 20, 1 mM DTT) to remove unbound ligand and to reduce non-specific binding. […] Kds were determined using an 11-point 3-fold compound dilution series with three DMSO control points. […] The compounds were then diluted directly into the assays such that the final concentration of DMSO was 0.9%. All reactions performed in polypropylene 384-well plate. Each was a final volume of 0.02 ml. […] The kinase concentration in the eluates was measured by qPCR. An 11-point 3-fold serial dilution of each test compound was prepared in 100% DMSO at 100x final test concentration and subsequently diluted to 1x in the assay (final DMSO concentration = 1%). Most Kds were determined using a compound top concentration = 30.000 nM. […] Binding constants (Kds) were calculated with a standard dose-response curve using the Hill equation: Response = Background + Signal – Background 1 + (KdHill Slope / DoseHill Slope). The Hill Slope was set to -1. Curves were fitted using a non-linear least square fit with the Levenberg-Marquardt algorithm.

ALK2 = molecular target: T2, ALK2 (Homo sapiens, UniProt Q04771); assay: DiscoverX Kd determination; type: binding
T2 construct: T7 phage fusion (or DNA tag for qPCR if made in HEK-293); purchased DiscoverX; host or cells: E. coli (T7 phage) or HEK-293
Description: as §1

ALK3 = molecular target: T3, ALK3 (Homo sapiens, UniProt P36894); assay: DiscoverX Kd determination; type: binding
T3 construct: T7 phage fusion (or DNA tag for qPCR if made in HEK-293); purchased DiscoverX; host or cells: E. coli (T7 phage) or HEK-293
Description: as §1

ALK4 = molecular target: T4, ALK4 (Homo sapiens, UniProt P36896); assay: DiscoverX Kd determination; type: binding
T4 construct: T7 phage fusion (or DNA tag for qPCR if made in HEK-293); purchased DiscoverX; host or cells: E. coli (T7 phage) or HEK-293
Description: as §1

ALK5 = molecular target: T5, ALK5 (Homo sapiens, UniProt P36897); assay: DiscoverX Kd determination; type: binding
T5 construct: T7 phage fusion (or DNA tag for qPCR if made in HEK-293); purchased DiscoverX; host or cells: E. coli (T7 phage) or HEK-293
T5 sequence (P36897 34-503): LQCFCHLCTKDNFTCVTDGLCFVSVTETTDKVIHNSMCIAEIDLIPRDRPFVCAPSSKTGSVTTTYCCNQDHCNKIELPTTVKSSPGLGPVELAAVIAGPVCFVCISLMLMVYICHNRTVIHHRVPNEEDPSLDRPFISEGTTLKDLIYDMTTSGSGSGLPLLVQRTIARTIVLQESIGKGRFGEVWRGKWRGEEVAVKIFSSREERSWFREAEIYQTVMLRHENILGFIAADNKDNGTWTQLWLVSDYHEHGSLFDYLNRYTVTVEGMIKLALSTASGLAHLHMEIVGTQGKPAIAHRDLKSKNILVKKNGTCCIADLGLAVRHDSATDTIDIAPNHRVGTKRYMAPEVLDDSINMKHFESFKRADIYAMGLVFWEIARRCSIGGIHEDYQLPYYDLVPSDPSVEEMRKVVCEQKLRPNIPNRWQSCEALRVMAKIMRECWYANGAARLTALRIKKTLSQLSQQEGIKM
Description: as §1

DDR2 = molecular target: T6, DDR2 (Homo sapiens, UniProt Q16832); assay: Proqinase Kinase profiling; type: biochemical; conditions: read-out: % inhibition at 100nM
T6 construct: purchased DiscoverX

PTK2B = molecular target: T7, PTK2B (Homo sapiens, UniProt Q14289); assay: Proqinase Kinase profiling; type: biochemical; conditions: read-out: % inhibition at 100nM
T7 construct: purchased DiscoverX
T7 sequence (Q14289 whole entry): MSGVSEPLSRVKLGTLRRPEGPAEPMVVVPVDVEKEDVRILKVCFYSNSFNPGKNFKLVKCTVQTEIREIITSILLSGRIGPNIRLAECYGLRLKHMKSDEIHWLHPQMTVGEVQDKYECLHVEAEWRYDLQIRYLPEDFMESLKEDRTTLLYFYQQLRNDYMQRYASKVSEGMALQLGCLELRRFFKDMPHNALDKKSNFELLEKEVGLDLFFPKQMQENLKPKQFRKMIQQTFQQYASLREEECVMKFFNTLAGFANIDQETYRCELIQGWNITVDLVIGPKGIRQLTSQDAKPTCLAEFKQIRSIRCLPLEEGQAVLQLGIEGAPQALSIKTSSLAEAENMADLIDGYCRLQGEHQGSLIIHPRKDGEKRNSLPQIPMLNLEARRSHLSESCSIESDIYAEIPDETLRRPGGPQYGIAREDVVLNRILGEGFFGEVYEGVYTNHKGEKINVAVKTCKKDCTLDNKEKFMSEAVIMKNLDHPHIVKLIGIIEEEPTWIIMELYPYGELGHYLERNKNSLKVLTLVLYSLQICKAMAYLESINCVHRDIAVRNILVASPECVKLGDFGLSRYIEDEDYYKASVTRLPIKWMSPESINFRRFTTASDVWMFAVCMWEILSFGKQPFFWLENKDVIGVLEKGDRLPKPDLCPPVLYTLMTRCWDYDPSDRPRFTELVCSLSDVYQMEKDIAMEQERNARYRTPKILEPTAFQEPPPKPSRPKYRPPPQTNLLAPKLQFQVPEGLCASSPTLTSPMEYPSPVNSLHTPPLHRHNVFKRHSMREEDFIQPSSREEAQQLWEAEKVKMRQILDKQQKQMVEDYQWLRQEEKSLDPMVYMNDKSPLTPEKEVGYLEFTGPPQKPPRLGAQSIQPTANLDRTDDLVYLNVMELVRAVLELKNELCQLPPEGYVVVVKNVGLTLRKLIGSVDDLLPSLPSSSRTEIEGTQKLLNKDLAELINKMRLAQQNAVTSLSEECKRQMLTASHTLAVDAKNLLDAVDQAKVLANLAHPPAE

CDK3_cyclinE = molecular target: T8, CDK3_cyclinE (Homo sapiens, UniProt Q00526); assay: Proqinase Kinase profiling; type: biochemical; conditions: read-out: % inhibition at 100nM
T8 construct: purchased DiscoverX

STK39 = molecular target: T9, STK39 (Homo sapiens, UniProt Q9UEW8); assay: Proqinase Kinase profiling; type: biochemical; conditions: read-out: % inhibition at 100nM
T9 construct: purchased DiscoverX

CSNK2A2 = molecular target: T10, CSNK2A2 (Homo sapiens, UniProt P19784); assay: Proqinase Kinase profiling; type: biochemical; conditions: read-out: % inhibition at 100nM
T10 construct: purchased DiscoverX

RPS6KB2 = molecular target: T11, RPS6KB2 (Homo sapiens, UniProt Q9UBS0); assay: Proqinase Kinase profiling; type: biochemical; conditions: read-out: % inhibition at 100nM
T11 construct: purchased DiscoverX
T11 sequence (Q9UBS0 whole entry): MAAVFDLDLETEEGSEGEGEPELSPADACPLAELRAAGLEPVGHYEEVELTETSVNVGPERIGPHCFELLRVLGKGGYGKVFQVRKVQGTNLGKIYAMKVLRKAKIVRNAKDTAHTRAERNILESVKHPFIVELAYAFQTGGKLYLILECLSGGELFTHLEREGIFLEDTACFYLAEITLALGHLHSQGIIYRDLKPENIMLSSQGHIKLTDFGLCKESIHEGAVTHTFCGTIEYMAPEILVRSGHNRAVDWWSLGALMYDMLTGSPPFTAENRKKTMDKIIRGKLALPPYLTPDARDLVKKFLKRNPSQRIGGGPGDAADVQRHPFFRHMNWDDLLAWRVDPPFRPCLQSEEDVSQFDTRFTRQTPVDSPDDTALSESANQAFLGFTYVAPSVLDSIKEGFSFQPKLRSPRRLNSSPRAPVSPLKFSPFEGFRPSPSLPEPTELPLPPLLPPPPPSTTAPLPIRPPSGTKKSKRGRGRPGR

STK17A = molecular target: T12, STK17A (Homo sapiens, UniProt Q9UEE5); assay: Proqinase Kinase profiling; type: biochemical; conditions: read-out: % inhibition at 100nM
T12 construct: purchased DiscoverX

CDK1_cyclinA2 = molecular target: T13, CDK1_cyclinA2 (Homo sapiens, UniProt P06493); assay: Proqinase Kinase profiling; type: biochemical; conditions: read-out: % inhibition at 100nM
T13 construct: purchased DiscoverX

BTK = molecular target: T14, BTK (Homo sapiens, UniProt Q06187); assay: Proqinase Kinase profiling; type: biochemical; conditions: read-out: % inhibition at 100nM
T14 construct: purchased DiscoverX

INSR = molecular target: T15, INSR (Homo sapiens, UniProt P06213); assay: Proqinase Kinase profiling; type: biochemical; conditions: read-out: % inhibition at 100nM
T15 construct: purchased DiscoverX

MAPK9 = molecular target: T16, MAPK9 (Homo sapiens, UniProt P45984); assay: Proqinase Kinase profiling; type: biochemical; conditions: read-out: % inhibition at 100nM
T16 construct: purchased DiscoverX

GRK6 = molecular target: T17, GRK6 (Homo sapiens, UniProt P43250); assay: Proqinase Kinase profiling; type: biochemical; conditions: read-out: % inhibition at 100nM
T17 construct: purchased DiscoverX
T17 sequence (P43250 whole entry): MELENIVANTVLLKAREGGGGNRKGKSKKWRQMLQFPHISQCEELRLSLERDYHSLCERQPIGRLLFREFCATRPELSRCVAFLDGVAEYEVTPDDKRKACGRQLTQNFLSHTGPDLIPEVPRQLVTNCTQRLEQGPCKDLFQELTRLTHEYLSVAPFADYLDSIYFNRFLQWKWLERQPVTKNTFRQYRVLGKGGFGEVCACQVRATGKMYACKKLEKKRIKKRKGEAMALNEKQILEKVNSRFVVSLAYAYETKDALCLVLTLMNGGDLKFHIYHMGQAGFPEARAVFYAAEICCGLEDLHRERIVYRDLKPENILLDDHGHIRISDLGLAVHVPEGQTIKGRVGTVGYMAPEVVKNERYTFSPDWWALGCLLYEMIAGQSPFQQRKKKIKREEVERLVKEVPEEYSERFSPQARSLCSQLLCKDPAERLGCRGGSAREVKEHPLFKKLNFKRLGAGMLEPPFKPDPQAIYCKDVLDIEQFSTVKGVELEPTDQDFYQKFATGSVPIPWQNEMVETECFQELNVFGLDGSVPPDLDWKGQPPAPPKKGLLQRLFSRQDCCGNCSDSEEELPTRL

DMPK = molecular target: T18, DMPK (Homo sapiens, UniProt Q09013); assay: Proqinase Kinase profiling; type: biochemical; conditions: read-out: % inhibition at 100nM
T18 construct: purchased DiscoverX

PAK2 = molecular target: T19, PAK2 (Homo sapiens, UniProt Q13177); assay: Proqinase Kinase profiling; type: biochemical; conditions: read-out: % inhibition at 100nM
T19 construct: purchased DiscoverX

BMPR1A = molecular target: T20, BMPR1A (Homo sapiens, UniProt P36894); assay: Proqinase Kinase profiling; type: biochemical; conditions: read-out: % inhibition at 100nM
T20 construct: purchased DiscoverX

CHEK1 = molecular target: T21, CHEK1 (Homo sapiens, UniProt O14757); assay: Proqinase Kinase profiling; type: biochemical; conditions: read-out: % inhibition at 100nM
T21 construct: purchased DiscoverX

LTK = molecular target: T22, LTK (Homo sapiens, UniProt P29376); assay: Proqinase Kinase profiling; type: biochemical; conditions: read-out: % inhibition at 100nM
T22 construct: purchased DiscoverX
T22 sequence (P29376 17-864): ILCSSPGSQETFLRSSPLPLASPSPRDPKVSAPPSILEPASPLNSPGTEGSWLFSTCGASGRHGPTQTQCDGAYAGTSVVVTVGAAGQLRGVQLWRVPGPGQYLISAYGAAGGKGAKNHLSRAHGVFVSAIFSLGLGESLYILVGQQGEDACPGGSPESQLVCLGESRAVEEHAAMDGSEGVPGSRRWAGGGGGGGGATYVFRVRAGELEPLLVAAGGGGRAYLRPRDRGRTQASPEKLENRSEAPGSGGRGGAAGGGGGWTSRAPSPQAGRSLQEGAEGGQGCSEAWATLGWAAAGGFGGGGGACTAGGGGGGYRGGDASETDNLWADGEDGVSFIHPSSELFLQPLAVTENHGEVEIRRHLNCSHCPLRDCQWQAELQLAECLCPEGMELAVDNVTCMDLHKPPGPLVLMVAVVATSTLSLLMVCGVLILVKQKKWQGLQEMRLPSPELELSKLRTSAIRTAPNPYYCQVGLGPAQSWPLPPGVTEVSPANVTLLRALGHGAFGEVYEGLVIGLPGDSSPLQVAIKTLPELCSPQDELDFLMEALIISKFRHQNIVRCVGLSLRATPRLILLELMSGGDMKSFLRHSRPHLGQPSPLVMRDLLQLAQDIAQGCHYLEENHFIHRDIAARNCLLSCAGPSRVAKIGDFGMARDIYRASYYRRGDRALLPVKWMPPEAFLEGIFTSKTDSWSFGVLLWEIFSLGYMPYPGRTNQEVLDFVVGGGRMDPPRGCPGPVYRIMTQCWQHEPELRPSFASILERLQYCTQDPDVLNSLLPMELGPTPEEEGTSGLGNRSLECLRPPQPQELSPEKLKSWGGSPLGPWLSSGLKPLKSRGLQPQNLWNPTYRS

AURKC = molecular target: T23, AURKC (Homo sapiens, UniProt Q9UQB9); assay: Proqinase Kinase profiling; type: biochemical; conditions: read-out: % inhibition at 100nM
T23 construct: purchased DiscoverX

FER = molecular target: T24, FER (Homo sapiens, UniProt P16591); assay: Proqinase Kinase profiling; type: biochemical; conditions: read-out: % inhibition at 100nM
T24 construct: purchased DiscoverX

MAP3K5 = molecular target: T25, MAP3K5 (Homo sapiens, UniProt Q99683); assay: Proqinase Kinase profiling; type: biochemical; conditions: read-out: % inhibition at 100nM
T25 construct: purchased DiscoverX

MET_Y1230C = molecular target: T26, MET_Y1230C (Homo sapiens, UniProt P08581, Y1230C); assay: Proqinase Kinase profiling; type: biochemical; conditions: read-out: % inhibition at 100nM
T26 construct: purchased DiscoverX

EGFR_L747-S752del_P753S = molecular target: T27, EGFR_L747-S752del_P753S (Homo sapiens, UniProt P00533, DEL747-752/P753S); assay: Proqinase Kinase profiling; type: biochemical; conditions: read-out: % inhibition at 100nM
T27 construct: purchased DiscoverX
T27 sequence (P00533 with tags, fused parts or gaps DEL747-752/P753S limits assumed): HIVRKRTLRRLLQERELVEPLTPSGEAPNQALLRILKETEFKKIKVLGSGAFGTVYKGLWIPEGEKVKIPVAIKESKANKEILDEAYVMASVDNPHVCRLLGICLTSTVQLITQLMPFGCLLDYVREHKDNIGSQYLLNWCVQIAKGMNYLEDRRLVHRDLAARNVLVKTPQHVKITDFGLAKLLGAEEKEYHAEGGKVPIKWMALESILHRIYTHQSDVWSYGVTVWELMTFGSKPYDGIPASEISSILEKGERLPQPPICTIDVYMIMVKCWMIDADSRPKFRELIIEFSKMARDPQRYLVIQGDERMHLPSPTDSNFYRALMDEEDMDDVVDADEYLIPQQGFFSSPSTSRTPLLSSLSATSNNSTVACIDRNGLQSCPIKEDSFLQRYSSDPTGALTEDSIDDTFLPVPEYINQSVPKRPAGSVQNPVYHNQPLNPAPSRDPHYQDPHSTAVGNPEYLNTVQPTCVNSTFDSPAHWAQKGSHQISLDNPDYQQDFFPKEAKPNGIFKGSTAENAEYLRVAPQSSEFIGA

EGFR_S752-I759del = molecular target: T28, EGFR_S752-I759del (Homo sapiens, UniProt P00533, DEL752-759); assay: Proqinase Kinase profiling; type: biochemical; conditions: read-out: % inhibition at 100nM
T28 construct: purchased DiscoverX
T28 sequence (P00533 with tags, fused parts or gaps DEL752-759 limits assumed): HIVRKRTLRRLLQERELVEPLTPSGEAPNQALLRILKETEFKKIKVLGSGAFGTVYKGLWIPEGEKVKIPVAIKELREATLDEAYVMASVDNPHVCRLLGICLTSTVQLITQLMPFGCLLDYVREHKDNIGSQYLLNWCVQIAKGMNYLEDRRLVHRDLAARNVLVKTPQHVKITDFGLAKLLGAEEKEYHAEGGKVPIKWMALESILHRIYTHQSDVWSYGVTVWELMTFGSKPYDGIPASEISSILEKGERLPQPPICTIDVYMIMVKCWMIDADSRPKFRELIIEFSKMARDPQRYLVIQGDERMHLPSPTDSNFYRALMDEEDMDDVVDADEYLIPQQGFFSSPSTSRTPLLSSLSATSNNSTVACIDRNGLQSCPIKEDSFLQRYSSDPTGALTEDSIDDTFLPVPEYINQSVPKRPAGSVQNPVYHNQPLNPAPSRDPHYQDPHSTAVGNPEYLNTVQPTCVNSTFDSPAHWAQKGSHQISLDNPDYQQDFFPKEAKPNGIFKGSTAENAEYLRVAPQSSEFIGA

YES1 = molecular target: T29, YES1 (Homo sapiens, UniProt P07947); assay: Proqinase Kinase profiling; type: biochemical; conditions: read-out: % inhibition at 100nM
T29 construct: purchased DiscoverX

EPHB4 = molecular target: T30, EPHB4 (Homo sapiens, UniProt P54760); assay: Proqinase Kinase profiling; type: biochemical; conditions: read-out: % inhibition at 100nM
T30 construct: purchased DiscoverX

caALK2 = molecular target: T31, caALK2 (Homo sapiens, UniProt Q04771, Q207D); assay: BRE-LUC with constitutive active ALK2 in C2C12 cells; type: cell-based; conditions: compound 0.5μM 16 hours
T31 construct: expressed in transfected cells; host or cells: C2C12 murine myofibroblast cells
Description: Compounds were added for 16 hours at 0.5μM before luciferase activity was measured.
For luciferase reporter assays, cells were seeded in 24-well plates and transfected with DharmaFECT Duo (Fisher Scientific, Landsmeer, The Netherlands), following the recommendations of the manufacturer. 48 hours after transfection the cells were harvested and lysed. […] Each transfection mixture was equalized with empty vector when necessary and every experiment was performed in triplicate.

T1 sequence (P37023 22-503): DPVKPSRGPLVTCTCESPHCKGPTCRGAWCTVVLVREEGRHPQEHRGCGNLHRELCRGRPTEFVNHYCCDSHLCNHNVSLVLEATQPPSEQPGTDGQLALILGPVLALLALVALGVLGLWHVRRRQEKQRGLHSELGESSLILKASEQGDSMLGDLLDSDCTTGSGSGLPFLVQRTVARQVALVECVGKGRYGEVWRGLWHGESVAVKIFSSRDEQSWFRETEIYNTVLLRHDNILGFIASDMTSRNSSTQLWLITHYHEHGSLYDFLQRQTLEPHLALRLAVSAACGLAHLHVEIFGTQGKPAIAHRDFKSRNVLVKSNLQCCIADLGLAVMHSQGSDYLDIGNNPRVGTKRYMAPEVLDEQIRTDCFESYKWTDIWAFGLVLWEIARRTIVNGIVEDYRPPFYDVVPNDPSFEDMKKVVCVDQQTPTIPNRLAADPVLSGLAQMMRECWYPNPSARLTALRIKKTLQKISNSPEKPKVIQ

Structure (SMILES) | Kd (ALK1) [nM] | Kd (ALK2) [nM] | Kd (ALK3) [nM] | Kd (ALK4) [nM] | Kd (ALK5) [nM] | inhibition at 0.1 µM (DDR2) [%] | inhibition at 0.1 µM (PTK2B) [%] | inhibition at 0.1 µM (CDK3_cyclinE) [%] | inhibition at 0.1 µM (STK39) [%] | inhibition at 0.1 µM (CSNK2A2) [%] | inhibition at 0.1 µM (RPS6KB2) [%] | inhibition at 0.1 µM (STK17A) [%] | inhibition at 0.1 µM (CDK1_cyclinA2) [%] | inhibition at 0.1 µM (BTK) [%] | inhibition at 0.1 µM (INSR) [%] | inhibition at 0.1 µM (MAPK9) [%] | inhibition at 0.1 µM (GRK6) [%] | inhibition at 0.1 µM (DMPK) [%] | inhibition at 0.1 µM (PAK2) [%] | inhibition at 0.1 µM (BMPR1A) [%] | other results
Clc1cc2cc(c1)-c1cnn3ccc(nc13)NCCOCCO2 [OD36] | 90 | 37 | 3000 | 3000 | 3000 | 59 | -2 | 11 | 0 | 8 | 11 | 23 | 11 | 3 | 6 | 12 | 10 | 2 | -5 | 9 | inhibition at 0.1 µM (CHEK1): 11%; inhibition at 0.1 µM (LTK): 6%; inhibition at 0.1 µM (AURKC): 13%; inhibition at 0.1 µM (FER): 6%; inhibition at 0.1 µM (MAP3K5): 13%; inhibition at 0.1 µM (MET_Y1230C): 7%; inhibition at 0.1 µM (EGFR_L747-S752del_P753S): 10%; inhibition at 0.1 µM (EGFR_S752-I759del): 17%; inhibition at 0.1 µM (YES1): 28%; inhibition at 0.1 µM (EPHB4): 6%; Inhibition of caALK2-driven BRE-LUC activity (caALK2): exclusively inhibited ALK2
Cc1cc2cc(c1)-c1cnn3ccc(nc13)NCCNC(=O)CCN(C)C2 [OD52] | 13 | 9.6 | 1300 | 260 | 850 | 6 | 6 | 5 | 5 | 5 | 4 | 4 | 1 | -2 | -4 | -5 | -5 | -5 | -7 | -7 | inhibition at 0.1 µM (CHEK1): -8%; inhibition at 0.1 µM (LTK): -8%; inhibition at 0.1 µM (AURKC): -11%; inhibition at 0.1 µM (FER): -12%; inhibition at 0.1 µM (MAP3K5): -12%; inhibition at 0.1 µM (MET_Y1230C): -13%; inhibition at 0.1 µM (EGFR_L747-S752del_P753S): -15%; inhibition at 0.1 µM (EGFR_S752-I759del): -15%; inhibition at 0.1 µM (YES1): -22%; inhibition at 0.1 µM (EPHB4): -25%; Inhibition of caALK2-driven BRE-LUC activity (caALK2): exclusively inhibited ALK2
